The results in this text go back to patent US8853424B2 (Japan Science and Technology Agency, priority 2008, dated 2014).

Like-named read-outs stand apart in the source and are kept apart here.

One assay relates to transglutaminase (TGase). The assay can be described thus: Measurement of TG (TGase inhibitory activity, monodansyl cadaverine / N,N-dimethylcasein fluorescence, FDSS 3000). It counts as biochemical. An outline of the steps: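 Compound (1 μL of 10 mM stock) added to 0.1 mL reaction: 100 mM HEPES-NaOH pH 7.5, 1 mM CaCl2, 20 μM monodansyl cadaverine, 0.05 mg/mL N,N-dimethylcasein, 5 μg/mL TGase. Rate of fluorescence change at 340 nm measured; DMSO control set to 100; TG50 is the concentration halving activity.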

Assay [1] has as its system SOC (store operated calcium channel). Description: Measurement of SOC IC50 (thapsigargin store depletion, calcium re-addition, CHO cells). It counts as cell-based. Particulars: CHO cells, 1 μM thapsigargin, 2 mM calcium chloride, read-out: SOC IC50. As for the experimental part: The SOC (store operated calcium channel)-suppressive action can be measured by the method described in the Example and using, for example, FDSS 3000.
CHO cell culture medium was replaced with a BSS solution which is an extracellular fluidfree of calcium, the compound of the present invention was added 1 min later, and 1 μM thapsigargin was allowed to act thereon 2 min later to deplete intracellular calcium store. […]

The subject of assay [2] is Truncated N-terminal huntington 150 Q-EGFP-Neuron 2a cells. The assay can be described thus: Measurement of x-Fold (polyglutamine aggregation inhibitory activity). It counts as cell-based. The method, then:
In the present invention, the polyglutamine aggregation inhibitory activity (x-Fold) can be measured, for example, by the method described in the Example.
The number of the aggregated cells, and the total number of cells were counted by Array Scan V T1 (manufactured by Cellomics, Pittuburg, USA), and the ratio of the aggregated cells to the total number of cells was determined (x-Fold). […]

The mark [3] stands for this setting: TGase activity with compound (10 mM, 1 μL in 0.1 ml enzyme reaction solution), DMSO control taken as 100.
The mark [4] stands for this setting: TGase inhibitory activity measurement, unit not given.
Setting [5] is: polyglutamine aggregation, Truncated N-terminal huntington 150 Q-EGFP-Neuron 2a cells.
Where [6] appears, read: ratio of aggregated cells to total number of cells, compound 20 μM, 20 hr, almost 1 without compound, smaller = stronger inhibition.

With `c1ccc(CNCCOB(c2ccccc2)c2ccc(COCc3ccc(B(OCCNCc4ccccc4)c4ccccc4)cc3)cc2)cc1` [Example 456, bis(4,4′-(phenyl-benzylaminoethoxyboryl)benzyl)ether], the “TGase activity remaining (% of DMSO control = 100)” value in the assay on transglutaminase (TGase) (setting [3]) and with transglutaminase (TGase) (setting [4]) was 29 each time. Further, the IC50 (commonly the midpoint of a concentration-inhibition curve) in assay [1] turned out to be 500 nM. Further, the x-Fold in assay [2] (setting [5]) and in assay [2] (setting [6]) was 0.87 each time.

Take `CN1CCCCC1COB(c1ccccc1)c1ccc(COCc2ccc(B(OCC3CCCCN3C)c3ccccc3)cc2)cc1` (stereo not shown) [Example 457, bis(4,4′-(phenyl-N-methylpiperidine-methoxyboryl)benzyl)ether]: the “TGase activity remaining (% of DMSO control = 100)” value with transglutaminase (TGase) (setting [3]) and in the assay on transglutaminase (TGase) (setting [4]) was 30 in each case. Moreover, in assay [1], the 50% inhibitory concentration (IC50) worked out at 600 nM. The x-Fold in assay [2] (setting [5]) and in assay [2] (setting [6]) was 1.10 each time.

Consider `CC(CN)OB(c1ccccc1)c1ccc(COCc2ccc(B(OC(C)CN)c3ccccc3)cc2)cc1` (stereo not shown) [Example 458, bis(4,4′-(phenyl-1-methyl-2-aminoethoxyboryl)benzyl)ether], for which the “TGase activity remaining (% of DMSO control = 100)” value with transglutaminase (TGase) (setting [3]) and with transglutaminase (TGase) (setting [4]) was 31 in each case. Besides, the half-inhibitory concentration (IC50) in assay [1] was found to be 500 nM. Further, the x-Fold in assay [2] (setting [5]) and in assay [2] (setting [6]) was 1.10 in each case.

With `c1ccc(B(OCC2CCCN2)c2cccc(COCc3cccc(B(OCC4CCCN4)c4ccccc4)c3)c2)cc1` (stereo not shown) [Example 460, bis(3,3′-(phenyl-2-pyrrolidinomethoxyboryl)benzyl)ether], the “TGase activity remaining (% of DMSO control = 100)” value in the assay on transglutaminase (TGase) (setting [3]) and in the assay with transglutaminase (TGase) (setting [4]) was 26 in each case. For the same compound, the IC50 in assay [1] was 400 nM. Further, the x-Fold in assay [2] (setting [5]) and in assay [2] (setting [6]) was 0.95 in each case.

In the case of `NC(COB(c1ccccc1)c1cccc(COCc2cccc(B(OCC(N)c3ccccc3)c3ccccc3)c2)c1)c1ccccc1` (stereo not shown) [Example 462, bis(3,3′-(phenyl-2-phenyl-2-aminoethoxyboryl)benzyl)ether], the “TGase activity remaining (% of DMSO control = 100)” value with transglutaminase (TGase) (setting [3]) and in the assay on transglutaminase (TGase) (setting [4]) was 31 in each case. In addition, in assay [1], the IC50 stood at 300 nM. The x-Fold in assay [2] (setting [5]) and in assay [2] (setting [6]) was 0.92 each time.

Turning to `c1ccc(B(OCC2CCCCN2)c2cccc(COCc3cccc(B(OCC4CCCCN4)c4ccccc4)c3)c2)cc1` (stereo not shown) [Example 463, bis(3,3′-(phenyl-2-piperidylmethoxyboryl)benzyl)ether], the “TGase activity remaining (% of DMSO control = 100)” value with transglutaminase (TGase) (setting [3]) and with transglutaminase (TGase) (setting [4]) was 24 in each case. In assay [1], the IC50 is 300 nM. In addition, the x-Fold in assay [2] (setting [5]) and in assay [2] (setting [6]) was 0.92 in each case.

With `CN(C)CCOB(c1ccccc1)c1cccc(COCc2cccc(B(OCCN(C)C)c3ccccc3)c2)c1` [Example 464, bis(3,3′-(phenyl-dimethylaminoethoxyboryl)benzyl)ether], the “TGase activity remaining (% of DMSO control = 100)” value in the assay on transglutaminase (TGase) (setting [3]) is 41; in the assay with transglutaminase (TGase) (TGase inhibitory activity measurement, unit not given, listed as 3021), 41. Also, the half-maximal inhibitory concentration (IC50) in assay [1] (no unit printed) turned out to be 800 nM. Also, the x-Fold was 0.76 in assay [2] (polyglutamine aggregation, Truncated N-terminal huntington 150 Q-EGFP-Neuron 2a cells, listed as 3021) and 0.76 in assay [2] (setting [6]).

As to `CC(CN)OB(c1ccccc1)c1cccc(COCc2cccc(B(OC(C)CN)c3ccccc3)c2)c1` (stereo not shown) [Example 465, bis(3,3′-(phenyl-1-methyl-2-aminoethoxyboryl)benzyl)ether], the “TGase activity remaining (% of DMSO control = 100)” value in the assay on transglutaminase (TGase) (setting [3]) and in the assay on transglutaminase (TGase) (setting [4]) was 18 in each case. Also, the concentration for half-maximal inhibition (IC50) in assay [1] worked out at 200 nM. Besides, the x-Fold in assay [2] (setting [5]) and in assay [2] (setting [6]) was 1.06 each time.

`c1ccc(B(OCc2ccccn2)c2cccc(COCc3cccc(B(OCc4ccccn4)c4ccccc4)c3)c2)cc1` [Example 467, bis(3,3′-(phenyl-2-pyridylmethoxyboryl)benzyl)ether]: the “TGase activity remaining (% of DMSO control = 100)” value in the assay with transglutaminase (TGase) (setting [3]) and with transglutaminase (TGase) (setting [4]) was 60 in each case. Also, the IC50 in assay [1] came out at 250 nM. Moreover, the x-Fold in assay [2] (setting [5]) and in assay [2] (setting [6]) was 0.98 each time.

As to `NCC(OB(c1ccccc1)c1cccc(COCc2cccc(B(OC(CN)c3ccccc3)c3ccccc3)c2)c1)c1ccccc1` (stereo not shown) [Example 468, bis(3,3′-(phenyl-2-amino-1-phenylethoxyboryl)benzyl)ether], the “TGase activity remaining (% of DMSO control = 100)” value in the assay on transglutaminase (TGase) (setting [3]) and in the assay on transglutaminase (TGase) (setting [4]) was 35 throughout. Further, the 50% inhibitory concentration (IC50) in assay [1] is 300 nM. In addition, the x-Fold in assay [2] (setting [5]) and in assay [2] (setting [6]) was 0.98 in each case.

Take `CNCCOB(c1ccccc1)c1cccc(COCc2cccc(B(OCCNC)c3ccccc3)c2)c1` [Example 469, bis(3,3′-(phenyl-N-methylaminoethoxyboryl)benzyl)ether]: the “TGase activity remaining (% of DMSO control = 100)” value with transglutaminase (TGase) (setting [3]) and with transglutaminase (TGase) (setting [4]) was 15 each time. Also, the IC50 in assay [1] worked out at 250 nM. The x-Fold in assay [2] (setting [5]) and in assay [2] (setting [6]) was 0.94 each time.

For the compound `CC(CNCCN)OB(c1ccccc1)c1cccc(COCc2cccc(B(OC(C)CNCCN)c3ccccc3)c2)c1` (stereo not shown) [Example 470, bis(3,3′-(phenyl-N-aminoethyl-1-methyl-2-aminoethoxyboryl)benzyl)ether], the “TGase activity remaining (% of DMSO control = 100)” value in the assay on transglutaminase (TGase) (setting [3]) and in the assay with transglutaminase (TGase) (setting [4]) was 19 in each case. Also, the concentration for half-maximal inhibition (IC50) in assay [1] turned out to be 300 nM. In addition, the x-Fold in assay [2] (setting [5]) and in assay [2] (setting [6]) was 1.02 each time.

As for `NC(=O)CCC(N)C(=O)OB(c1ccccc1)c1cccc(COCc2cccc(B(OC(=O)C(N)CCC(N)=O)c3ccccc3)c2)c1` (stereo not shown) [Example 471, bis(3,3′-(phenyl-glutamineboryl)benzyl)ether], the “TGase activity remaining (% of DMSO control = 100)” value with transglutaminase (TGase) (setting [3]) and in the assay on transglutaminase (TGase) (setting [4]) was 52 each time. In assay [1], the IC50 was determined as 600 nM. Besides, the x-Fold in assay [2] (setting [5]) and in assay [2] (setting [6]) was 1.04 throughout.

Regarding `NCCC(N)C(=O)OB(c1ccccc1)c1cccc(COCc2cccc(B(OC(=O)C(N)CCN)c3ccccc3)c2)c1` (stereo not shown) [Example 472, bis(3,3′-(phenyl-2,4-diaminobutyric acid boryl)benzyl)ether], the “TGase activity remaining (% of DMSO control = 100)” value in the assay with transglutaminase (TGase) (setting [3]) and in the assay on transglutaminase (TGase) (setting [4]) was 47 in each case. In addition, the 50% inhibitory concentration (IC50) in assay [1] was 1000 nM. The x-Fold in assay [2] (setting [5]) and in assay [2] (setting [6]) was 0.95 each time.

With `CCCCNCCOB(c1ccccc1)c1cccc(COCc2cccc(B(OCCNCCCC)c3ccccc3)c2)c1` [Example 473, bis(3,3′-(phenyl-N-butylaminoethoxyboryl)benzyl)ether], the “TGase activity remaining (% of DMSO control = 100)” value in the assay with transglutaminase (TGase) (setting [4]) is on record as −4. Moreover, the 50% inhibitory concentration (IC50) in assay [1] was determined as 500 nM. In addition, the x-Fold in assay [2] (setting [5]) and in assay [2] (setting [6]) was 0.96 in each case.

On to `NC(=O)CC(N)C(=O)OB(c1ccccc1)c1cccc(COCc2cccc(B(OC(=O)C(N)CC(N)=O)c3ccccc3)c2)c1` (stereo not shown) [Example 474, bis(3,3′-(phenyl-asparagineboryl)benzyl)ether], for which the “TGase activity remaining (% of DMSO control = 100)” value came out at 145 with transglutaminase (TGase) (setting [3]) and 145 in the assay with transglutaminase (TGase) (TGase inhibitory activity measurement, unit not given, listed as 3031). The IC50 in assay [1] stood at 500 nM. Also, the x-Fold is on record as 1.04 in assay [2] (polyglutamine aggregation, Truncated N-terminal huntington 150 Q-EGFP-Neuron 2a cells, listed as 3031) and 1.04 in assay [2] (setting [6]).
